From patent US11684606B2, “Methods of treating generalized pustular psoriasis with an antagonist of CCR6 or CXCR2” (CHEMOCENTRYX, INC., priority 2018, dated 2023)
“Also recorded” adds a separate entry of the source.

Assays:
mCCR1 = molecular target: T1, mCCR1 (Mus musculus, UniProt P51675); assay: Chemotaxis of mouse WEHI-274.1 cells to mCCL3; format: cell-based; settings: in serum; unit inferred
T1 construct: endogenous in cells; host or cells: mouse WEHI-274.1 cells (from the earlier reading's assay name)
T1 sequence (P51675 1-355): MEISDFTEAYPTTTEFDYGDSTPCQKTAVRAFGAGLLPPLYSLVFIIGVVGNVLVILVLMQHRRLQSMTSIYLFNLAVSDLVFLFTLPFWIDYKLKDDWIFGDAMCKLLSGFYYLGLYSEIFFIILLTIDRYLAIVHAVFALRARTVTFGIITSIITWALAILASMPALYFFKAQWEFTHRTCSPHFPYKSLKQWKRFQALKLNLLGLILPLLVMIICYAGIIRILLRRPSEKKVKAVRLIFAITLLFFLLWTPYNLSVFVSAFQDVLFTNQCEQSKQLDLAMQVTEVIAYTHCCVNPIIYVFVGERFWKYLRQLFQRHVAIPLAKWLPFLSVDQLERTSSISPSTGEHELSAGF

mCCR7 = molecular target: T2, mCCR7 (Mus musculus, UniProt P47774); assay: Chemotaxis of mouse splenocytes to mCCL19; format: cell-based; settings: in serum; unit inferred
T2 construct: endogenous in cells; host or cells: mouse splenocytes (from the earlier reading's assay name)
T2 sequence (P47774 25-378): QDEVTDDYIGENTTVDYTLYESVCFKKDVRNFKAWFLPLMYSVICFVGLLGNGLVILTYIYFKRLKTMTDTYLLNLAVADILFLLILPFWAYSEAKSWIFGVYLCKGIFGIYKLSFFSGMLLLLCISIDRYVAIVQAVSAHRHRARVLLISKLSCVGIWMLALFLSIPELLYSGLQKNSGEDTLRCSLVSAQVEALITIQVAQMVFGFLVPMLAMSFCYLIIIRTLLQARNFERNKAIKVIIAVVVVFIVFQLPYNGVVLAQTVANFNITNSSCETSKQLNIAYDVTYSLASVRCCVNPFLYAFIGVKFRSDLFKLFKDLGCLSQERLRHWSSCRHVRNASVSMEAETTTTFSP

mCCR9 = molecular target: T3, mCCR9 (Mus musculus, UniProt Q9WUT7); assay: Chemotaxis of mouse thymocytes to mCCL25; format: cell-based; settings: in serum; unit inferred
T3 construct: endogenous in cells; host or cells: mouse thymocytes (from the earlier reading's assay name)
T3 sequence (Q9WUT7 1-369): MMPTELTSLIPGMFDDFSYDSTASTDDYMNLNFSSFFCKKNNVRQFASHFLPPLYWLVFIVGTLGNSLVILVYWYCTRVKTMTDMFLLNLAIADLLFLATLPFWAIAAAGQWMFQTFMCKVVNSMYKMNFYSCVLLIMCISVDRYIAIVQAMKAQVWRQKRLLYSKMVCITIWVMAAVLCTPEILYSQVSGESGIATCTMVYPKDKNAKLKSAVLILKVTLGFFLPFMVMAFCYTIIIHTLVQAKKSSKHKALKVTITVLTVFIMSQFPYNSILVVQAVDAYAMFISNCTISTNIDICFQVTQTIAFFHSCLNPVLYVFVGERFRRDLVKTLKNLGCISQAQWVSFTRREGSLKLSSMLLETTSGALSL

mCXCR4 = molecular target: T4, mCXCR4 (Mus musculus, UniProt P70658); assay: Chemotaxis of mouse BaF3-WT to mCXCL12; format: cell-based; settings: in serum; unit inferred
T4 construct: endogenous in cells; host or cells: mouse BaF3-WT cells (from the earlier reading's assay name)

mCCR4 = molecular target: T5, mCCR4 (Mus musculus, UniProt P51680); assay: Chemotaxis of mCCR4-transfected BaF3 cells to mCCL22; format: cell-based; settings: A2 value, unit not given
T5 construct: expressed in transfected cells; host or cells: BaF3 cells (from the earlier reading's assay name)
T5 sequence (P51680 1-360): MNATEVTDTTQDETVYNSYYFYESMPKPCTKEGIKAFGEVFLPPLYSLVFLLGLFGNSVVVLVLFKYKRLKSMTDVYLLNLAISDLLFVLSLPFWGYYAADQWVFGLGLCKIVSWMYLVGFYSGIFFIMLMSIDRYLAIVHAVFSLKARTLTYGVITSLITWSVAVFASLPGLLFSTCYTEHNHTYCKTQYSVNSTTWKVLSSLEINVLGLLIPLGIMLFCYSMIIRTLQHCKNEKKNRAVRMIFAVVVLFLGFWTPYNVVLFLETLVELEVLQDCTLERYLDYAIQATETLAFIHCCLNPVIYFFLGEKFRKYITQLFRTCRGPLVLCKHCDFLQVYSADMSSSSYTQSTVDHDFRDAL

[1] = Plasma concentrations at trough after s.c. q.d. dosing; format: in vivo; settings: Balb/c, mouse, subcutaneous, 24 hours post final dose (day 5), mice
Procedure: (§1) For in vivo dosing, mice were dosed subcutaneously with Compound 1.136 once daily (s.c. q.d. in 1% HPMC) at 90 mg/kg unless stated otherwise, starting at day 0 of a study. The in vivo dose was predicted based on in vitro potency and the pharmacokinetic response to a single dose in mice. The minimum antagonist concentration (at trough) to fully cover a gradient-sensing chemoattractant receptor has been determined to correspond with the IC90 concentration (Schall, T. J., and A. E. Proudfoot. 2011. Overcoming hurdles in developing successful drugs targeting chemokine receptors. Nat Rev Immunol 11: 355-363).

mCCR2 = molecular target: T6, mCCR2 (Mus musculus, UniProt P51683); assay: Chemotaxis of mouse bone marrow cells to mCCL2; format: cell-based; settings: in serum; unit inferred
T6 construct: endogenous in cells; host or cells: mouse bone marrow cells (from the earlier reading's assay name)

[2] = tested on: CD4 T cells, neutrophils and inflammatory dendritic cells within IL-36-treated skin; assay: Flow cytometry of leukocytes accumulating in IL-36-treated skin; format: in vivo, mouse; settings: after 4 daily IL-36α ear injections; Compound 1.136 90 mg/kg/day s.c.; α-IL-17RA 200 μg/mouse/day i.p.; 90 mg/kg/day
Procedure: as §1
Flow cytometry of leukocytes. Ears or excised skin samples were digested in collagenase A and 1 U/ml DNAse I with agitation for 30 min at 37° C. Cells were then dislodged from skin, filtered through a […] sieve, washed and re-suspended in FACS buffer (PBS with 10% FBS) for analysis.
Directly conjugated Monoclonal antibodies were from R&D Systems (Minneapolis, Minn.), BioLegend (San Diego, Calif.), or eBioscience/ThermoFisher (San Diego, Calif.). CD45.2 (104) in AlexaFluor488, Ly6C (HK1.4) in PE, CD90.2 (30-H12) in Per CP-Cy5.5, TCRVγ4 (UC3-10A6) in PE-Cy7, TCRβ (H57-597) in APC, CD4 (GK1.5) in APC-eFluor-780, TCRγδ (GL3) in BV-421, LIVE/DEAD fixable Aqua stain (Molecular Probes, Eugene, Oreg.), CD11c (N418) in BV650, Ly6G (1A4) in BV711 and CD11b (M1/70) in BV785. Flow cytometry data were acquired with a Fortessa (BD Biosciences) cytometer and analyzed using FlowJo v10.2

T6 sequence (P51683 whole entry): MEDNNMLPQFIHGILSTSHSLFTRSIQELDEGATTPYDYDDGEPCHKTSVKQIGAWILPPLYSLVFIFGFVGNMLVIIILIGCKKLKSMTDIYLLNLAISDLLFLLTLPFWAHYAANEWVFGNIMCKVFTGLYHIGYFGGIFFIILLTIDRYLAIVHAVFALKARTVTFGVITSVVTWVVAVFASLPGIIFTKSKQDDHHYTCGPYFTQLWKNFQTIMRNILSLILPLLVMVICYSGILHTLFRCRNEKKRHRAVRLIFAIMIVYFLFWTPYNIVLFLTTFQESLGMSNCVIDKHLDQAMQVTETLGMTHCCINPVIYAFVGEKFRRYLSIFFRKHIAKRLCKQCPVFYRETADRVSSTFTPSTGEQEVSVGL
T4 sequence (P70658 whole entry): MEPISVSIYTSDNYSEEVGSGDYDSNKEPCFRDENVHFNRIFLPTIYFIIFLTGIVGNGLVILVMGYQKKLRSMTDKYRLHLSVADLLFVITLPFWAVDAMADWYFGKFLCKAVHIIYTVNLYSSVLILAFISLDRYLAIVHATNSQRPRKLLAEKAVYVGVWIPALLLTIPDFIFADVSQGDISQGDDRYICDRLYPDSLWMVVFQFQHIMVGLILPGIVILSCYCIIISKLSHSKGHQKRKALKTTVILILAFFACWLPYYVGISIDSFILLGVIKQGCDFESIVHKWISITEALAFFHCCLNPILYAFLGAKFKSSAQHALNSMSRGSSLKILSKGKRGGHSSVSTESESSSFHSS

## CCC(C)(C)[C@@H](Nc1c(Nc2c(F)ccc3c2C(=O)N[C@H]3C)c(=O)c1=O)c1ccc(C)o1 [Compound 1.136]
mCCR1
  IC50: > 10 µM
mCCR7
  IC50: 6 µM
mCCR9
  IC50: > 10 µM
mCXCR4
  IC50: > 10 µM
mCCR4
  A2 for chemotaxis of mCCR4-transfected BaF3 cells to mCCL22 in serum: >10,000
[1]; 30 mg/kg s.c. q.d. in 1% HPMC
  concentration at 24 h: 267 ± 18 ng/mL
[1]; 60 mg/kg s.c. q.d. in 1% HPMC
  concentration at 24 h: 323 ± 20 ng/mL
[1]; 90 mg/kg s.c. q.d. in 1% HPMC
  concentration at 24 h: 973 ± 19 ng/mL
mCCR2
  IC50: > 10 µM
[2]
  Accumulation of CD4+ T cells within IL-36-treated skin: significantly reduced the accumulation; also recorded: significantly reduces accumulation
  Accumulation of inflammatory dendritic cells (iDC) within IL-36-treated skin: significantly reduced the accumulation; also recorded: significantly reduces accumulation
  Accumulation of neutrophils within IL-36-treated skin: significantly reduced the accumulation; also recorded: significantly reduces accumulation
